Test results from ChEMBL document CHEMBL1201862, “PubChem BioAssay data set” (2004).
Each block holds one compound with its values, some of them ahead of it. Calls of active or inactive are those of the source.

Assays:
Fatty acid synthase [1] = molecular target: T1, Fatty acid synthase (Homo sapiens, UniProt P49327); experiment: inhibition of human FAS-TE enzyme activity – biochemical, kinetic fluorescence intensity, dose response (AID 624326); type: functional;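 also: rate of fluorescence rise from hydrolysis of a fluorogenic O-methyl fluorescein ester substrate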
T1 sequence (P49327 whole entry): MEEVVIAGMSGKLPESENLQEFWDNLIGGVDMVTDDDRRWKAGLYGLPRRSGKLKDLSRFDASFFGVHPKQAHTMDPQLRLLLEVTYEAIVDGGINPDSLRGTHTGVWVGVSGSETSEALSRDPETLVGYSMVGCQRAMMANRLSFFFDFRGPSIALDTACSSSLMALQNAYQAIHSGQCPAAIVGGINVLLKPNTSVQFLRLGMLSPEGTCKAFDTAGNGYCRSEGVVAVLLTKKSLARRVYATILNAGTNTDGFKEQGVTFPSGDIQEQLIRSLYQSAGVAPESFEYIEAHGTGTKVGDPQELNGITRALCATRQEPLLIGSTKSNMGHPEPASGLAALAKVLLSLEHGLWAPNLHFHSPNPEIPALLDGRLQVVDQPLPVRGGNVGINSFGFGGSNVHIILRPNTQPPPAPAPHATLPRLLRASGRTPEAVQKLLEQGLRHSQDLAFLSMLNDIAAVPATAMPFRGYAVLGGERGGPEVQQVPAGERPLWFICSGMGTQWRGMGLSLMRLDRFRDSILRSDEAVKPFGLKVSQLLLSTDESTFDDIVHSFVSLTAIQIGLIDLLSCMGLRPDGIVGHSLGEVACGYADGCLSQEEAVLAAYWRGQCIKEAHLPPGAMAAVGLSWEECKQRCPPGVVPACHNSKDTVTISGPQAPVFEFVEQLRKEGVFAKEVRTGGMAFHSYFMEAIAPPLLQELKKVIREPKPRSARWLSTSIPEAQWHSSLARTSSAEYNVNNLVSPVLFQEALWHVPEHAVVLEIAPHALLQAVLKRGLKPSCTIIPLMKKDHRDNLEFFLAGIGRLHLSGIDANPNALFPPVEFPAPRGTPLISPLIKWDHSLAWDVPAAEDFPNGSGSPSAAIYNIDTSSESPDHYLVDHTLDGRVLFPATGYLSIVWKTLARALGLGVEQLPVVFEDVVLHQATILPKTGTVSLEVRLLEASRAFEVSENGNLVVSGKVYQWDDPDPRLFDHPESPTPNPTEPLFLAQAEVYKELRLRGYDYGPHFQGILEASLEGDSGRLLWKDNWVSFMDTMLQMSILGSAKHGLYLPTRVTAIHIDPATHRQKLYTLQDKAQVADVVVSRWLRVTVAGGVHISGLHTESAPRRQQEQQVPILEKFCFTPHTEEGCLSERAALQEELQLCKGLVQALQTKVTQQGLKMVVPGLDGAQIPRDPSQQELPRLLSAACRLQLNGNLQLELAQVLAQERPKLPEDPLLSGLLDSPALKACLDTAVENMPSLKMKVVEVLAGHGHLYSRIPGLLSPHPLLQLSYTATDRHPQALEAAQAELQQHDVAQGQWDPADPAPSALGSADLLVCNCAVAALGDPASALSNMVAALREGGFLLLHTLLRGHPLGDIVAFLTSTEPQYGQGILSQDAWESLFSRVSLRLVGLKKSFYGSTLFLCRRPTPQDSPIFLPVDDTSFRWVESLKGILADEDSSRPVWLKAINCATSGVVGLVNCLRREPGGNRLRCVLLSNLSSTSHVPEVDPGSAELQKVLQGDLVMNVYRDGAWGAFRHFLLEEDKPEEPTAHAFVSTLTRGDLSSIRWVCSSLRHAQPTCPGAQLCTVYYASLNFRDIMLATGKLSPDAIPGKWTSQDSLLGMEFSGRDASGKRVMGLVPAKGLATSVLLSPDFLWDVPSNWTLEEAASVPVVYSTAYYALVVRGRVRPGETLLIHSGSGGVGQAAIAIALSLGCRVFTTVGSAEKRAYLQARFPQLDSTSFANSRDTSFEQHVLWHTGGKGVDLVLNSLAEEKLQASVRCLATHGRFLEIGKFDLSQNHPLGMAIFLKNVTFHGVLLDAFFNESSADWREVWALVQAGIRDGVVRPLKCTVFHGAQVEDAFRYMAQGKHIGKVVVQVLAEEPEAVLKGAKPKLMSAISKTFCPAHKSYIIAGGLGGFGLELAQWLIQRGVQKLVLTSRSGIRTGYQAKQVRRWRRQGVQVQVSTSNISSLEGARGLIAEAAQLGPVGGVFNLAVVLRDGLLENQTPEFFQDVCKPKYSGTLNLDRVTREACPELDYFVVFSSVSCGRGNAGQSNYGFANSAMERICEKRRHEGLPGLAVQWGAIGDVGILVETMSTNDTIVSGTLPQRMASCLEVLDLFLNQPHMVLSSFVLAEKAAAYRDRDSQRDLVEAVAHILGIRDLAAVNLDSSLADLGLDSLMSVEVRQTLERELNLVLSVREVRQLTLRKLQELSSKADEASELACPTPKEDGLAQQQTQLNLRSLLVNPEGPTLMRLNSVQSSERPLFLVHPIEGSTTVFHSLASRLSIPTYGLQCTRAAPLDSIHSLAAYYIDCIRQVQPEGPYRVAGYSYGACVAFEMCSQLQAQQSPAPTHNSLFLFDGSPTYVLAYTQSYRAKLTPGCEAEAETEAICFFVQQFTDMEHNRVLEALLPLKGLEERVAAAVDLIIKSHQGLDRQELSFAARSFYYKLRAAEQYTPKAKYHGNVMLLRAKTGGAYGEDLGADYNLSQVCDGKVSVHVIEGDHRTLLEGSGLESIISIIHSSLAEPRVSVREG

Fatty acid synthase [2] = molecular target: T1, Fatty acid synthase; experiment: inhibition of human FAS-TE enzyme activity – biochemical, endpoint fluorescence intensity, uHTS hits, dose response (AID 624327); type: functional;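 also: fluorescence from hydrolysis of an O-methyl fluorescein acyl ester substrate by the enzyme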
[3] = viability of HCT116 lacking mutant beta-catenin – cell-based, human colon tumor, dose response (AID 1045); type: functional;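 also: HCT116 colon tumor cells with beta catenin knocked out; cells exposed to compound for 60 hours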
[4] = molecular target: T2, Heat shock factor protein 1 (Mus musculus, UniProt P38532); experiment: decrease of HSF1-responsive luciferase luminescence – cell-based, NIH3T3, dose retest, confirmation (AID 2382); type: functional;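 also: NIH3T3 fibroblasts with HSF1-driven luciferase reporter stressed by proteasome inhibitor MG132; luminescence from HSF1-driven luciferase expression after 8 hours of MG132 stress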
T2 sequence (P38532 whole entry): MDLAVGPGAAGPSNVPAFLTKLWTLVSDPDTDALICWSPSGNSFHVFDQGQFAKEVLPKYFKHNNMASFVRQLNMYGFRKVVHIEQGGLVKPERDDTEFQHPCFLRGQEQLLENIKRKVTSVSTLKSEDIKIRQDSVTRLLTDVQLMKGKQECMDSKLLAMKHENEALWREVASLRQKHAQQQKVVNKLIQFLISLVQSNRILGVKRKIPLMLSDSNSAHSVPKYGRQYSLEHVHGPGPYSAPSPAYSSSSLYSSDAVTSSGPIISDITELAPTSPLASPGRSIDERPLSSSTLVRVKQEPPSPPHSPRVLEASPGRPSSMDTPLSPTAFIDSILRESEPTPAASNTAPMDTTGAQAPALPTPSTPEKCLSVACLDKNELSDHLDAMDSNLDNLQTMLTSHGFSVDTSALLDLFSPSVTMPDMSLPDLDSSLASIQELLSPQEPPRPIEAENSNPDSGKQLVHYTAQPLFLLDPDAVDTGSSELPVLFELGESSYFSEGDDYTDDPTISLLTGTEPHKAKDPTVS

[5] = viability of PTEN-deleted HCT116 cells – cell-based, HCT116 PTEN knockout, dose response (AID 1047); type: functional;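 also: HCT116 colon tumor cells with PTEN knocked out; cells exposed to compound for 60 hours before readout; potency for loss of cell viability measured by luminescence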
[6] = molecular target: T3, RNA-binding protein pos-1 (Caenorhabditis elegans, UniProt G5EF15); experiment: disruptors of C. elegans POS-1 RNA interaction – biochemical, fluorescence polarization, dose response (AID 1964);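 also: purified POS-1 fused to maltose binding protein made in E. coli; potency of compounds blocking POS-1 binding to fluorescent RNA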
T3 sequence (G5EF15 whole entry): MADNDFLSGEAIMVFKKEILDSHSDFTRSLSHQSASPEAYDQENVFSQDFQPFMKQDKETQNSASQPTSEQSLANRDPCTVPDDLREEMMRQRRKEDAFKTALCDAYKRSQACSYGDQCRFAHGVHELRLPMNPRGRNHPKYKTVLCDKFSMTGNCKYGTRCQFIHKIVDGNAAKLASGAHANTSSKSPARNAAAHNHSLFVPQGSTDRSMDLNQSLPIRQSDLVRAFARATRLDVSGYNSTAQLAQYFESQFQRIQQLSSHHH

[7] = molecular target: T4, Zinc finger protein mex-5 (Caenorhabditis elegans, UniProt Q9XUB2); experiment: potency of MEX-5 RNA-binding blockers – biochemical, C. elegans, fluorescence polarization, dose response (AID 1960)
T4 sequence (Q9XUB2 whole entry): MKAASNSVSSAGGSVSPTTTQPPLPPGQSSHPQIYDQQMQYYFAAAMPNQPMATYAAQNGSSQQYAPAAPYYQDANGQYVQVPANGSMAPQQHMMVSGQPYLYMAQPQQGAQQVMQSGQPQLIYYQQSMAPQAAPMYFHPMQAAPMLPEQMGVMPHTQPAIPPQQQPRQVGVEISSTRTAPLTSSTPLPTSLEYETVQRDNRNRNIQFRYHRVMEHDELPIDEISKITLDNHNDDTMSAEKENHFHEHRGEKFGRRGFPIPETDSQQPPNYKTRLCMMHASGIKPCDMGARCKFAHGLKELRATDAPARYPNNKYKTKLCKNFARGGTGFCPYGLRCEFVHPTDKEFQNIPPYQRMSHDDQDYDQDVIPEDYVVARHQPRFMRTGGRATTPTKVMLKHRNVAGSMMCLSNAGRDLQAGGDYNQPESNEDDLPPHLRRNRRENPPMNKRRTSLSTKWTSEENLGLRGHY

H9c2 = experiment: cells; type: functional, cell-based; settings: Rattus norvegicus, H9c2, Myocardium;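 also: confirmatory concentration-response retest of ultra-high-throughput screening hits for modulation of myocardial damage; cell death induced by hydrogen peroxide oxidative stress; compound pretreatment for 60 min then peroxide exposure for 2 h; potency is for protecting the cells against peroxide damage rather than for killing them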
[8] = blockers of HIV-1 envelope-mediated cell-cell fusion – cherry-pick, dose response (AID 652057); type: functional, cell-based
[9] = off-target signal loss in HeLa-CEM21 co-culture – HeLa F-luc CTL cells, cherry-picked, counter-screen for HIV-1 Env fusion inhibitor project, dose response (AID 652040); type: functional, cell-based;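 also: potency for signal decrease marking cytotoxic or nonspecific inhibition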
[10] = HIV-1 AD8 envelope cell-cell fusion blockers – cherry-pick, dose response (AID 652062); type: functional, cell-based;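 also: luciferase signal from cell-cell fusion driven by HIV-1 clade B AD8 Env; potency is for inhibitors of fusion seen as a drop in luminescence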
[11] = blockers of HIV-1 ZM109 envelope-driven cell-cell fusion – HeLa effector, CEM target cells, luciferase, cherry-pick, dose response (AID 652058); type: functional, cell-based;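 also: luciferase signal from HIV-1 Env mediated cell-cell fusion of effector and target cells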
[12] = tested on: Streptococcus sp. 'group A'; experiment: Streptococcus pyogenes SK(-)GAS viability under kanamycin – luminescence, BacTiterGlo, confirmation, counter-screen for streptokinase expression inhibitor project, dose response (AID 1900); type: functional, organism-based
Streptococcus = experiment: GAS UMAA2166 growth inhibition – luminescence, BacTiterGlo, counter-screen for streptokinase expression inhibitor project, dose response (AID 1915); type: functional, organism-based;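 also: potency for reduction of bacterial viability or growth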
[13] = non-specific 3'UTR reporter inhibition in Clone20-Shn3RL – cell-based, Renilla luciferase, cherry-picked, counter-screen for Shn3 inhibitor project, dose response (AID 624133); type: functional
[14] = reduction of Shn3 3'UTR-driven luciferase in osteoblasts – cell-based, Clone20 osteoblasts, firefly luciferase, cherry-picked, dose response (AID 624132); type: functional;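 also: firefly luciferase luminescence from reporter carrying the Shn3 3'UTR in osteoblasts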
[15] = molecular target: T5, Corticotropin-releasing factor receptor 2/Corticotropin-releasing factor-binding protein (Homo sapiens, UniProt P24387+Q13324); experiment: activators of CRF receptor 2 with binding protein – uHTS hits, confirmation (AID 602473); type: functional; settings: read-out: EC50_Mean
T5 sequence (Q13324 whole entry): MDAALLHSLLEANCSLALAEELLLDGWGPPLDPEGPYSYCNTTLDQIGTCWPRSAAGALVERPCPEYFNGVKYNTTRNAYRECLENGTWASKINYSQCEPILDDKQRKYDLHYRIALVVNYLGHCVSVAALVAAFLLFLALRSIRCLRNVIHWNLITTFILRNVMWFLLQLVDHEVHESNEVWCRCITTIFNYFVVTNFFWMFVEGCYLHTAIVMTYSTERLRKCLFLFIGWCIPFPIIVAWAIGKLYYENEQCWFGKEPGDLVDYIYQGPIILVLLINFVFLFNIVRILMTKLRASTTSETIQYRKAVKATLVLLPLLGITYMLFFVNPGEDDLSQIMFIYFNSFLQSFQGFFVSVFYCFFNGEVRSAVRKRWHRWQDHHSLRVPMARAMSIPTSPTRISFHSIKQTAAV
T5 sequence (P24387 whole entry): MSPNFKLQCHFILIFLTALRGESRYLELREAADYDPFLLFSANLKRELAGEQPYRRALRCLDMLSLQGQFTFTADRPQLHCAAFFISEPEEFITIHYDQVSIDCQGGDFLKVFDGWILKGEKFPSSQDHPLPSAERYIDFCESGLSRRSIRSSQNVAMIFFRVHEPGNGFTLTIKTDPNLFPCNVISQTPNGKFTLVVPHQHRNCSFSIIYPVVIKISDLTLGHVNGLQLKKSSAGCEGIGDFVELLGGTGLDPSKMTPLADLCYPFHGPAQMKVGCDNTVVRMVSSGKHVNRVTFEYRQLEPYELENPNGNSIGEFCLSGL

[16] = molecular target: T5, Corticotropin-releasing factor receptor 2/Corticotropin-releasing factor-binding protein; experiment: Dose Response confirmation of uHTS hits for small molecule antagonists of the CRF-binding protein and CRF-R2 receptor complex.; type: functional; settings: read-out: IC50_Mean

IC50 (Fatty acid synthase [1]): 8.68 µM (active)
IC50 (Fatty acid synthase [2]): 12.2 µM (active)
Compound: O=C(COc1ccc2c3c(c(=O)oc2c1)CCC3)N1CCN(c2ccccc2)CC1

Compound: CCOc1ccc2nc(NC(=O)c3cc([N+](=O)[O-])ccc3N3CCOCC3)sc2c1
EC50 [3]: 48.5 µM (active)
EC50 [4]: 15 µM (active)
EC50 [5]: 23.3 µM (active)

IC50 (Fatty acid synthase [1]): 14.5 µM (active)
IC50 (Fatty acid synthase [2]): 12.4 µM (active)
Compound: C[C@H](NC(=O)C1CCN(S(=O)(=O)c2ccccc2)CC1)C(=O)NCc1ccc(Cl)c(Cl)c1

IC50 (Fatty acid synthase [1]): 5.35 µM (active)
IC50 (Fatty acid synthase [2]): 8.28 µM (active)
Compound: CC(C)(C)c1ccc(OCCC(=O)OCC(=O)NC2CCCCC2)cc1

EC50 [6]: > 300 µM (not active)
EC50 [7]: > 300 µM (not active)
Compound: CCOc1ccccc1N1CCN(C(=O)CNC(=O)c2ccccc2F)CC1

EC50 [6]: > 300 µM (not active)
EC50 [7]: > 300 µM (not active)
Compound: COc1cc(C2C(C#N)=C(N)OC3=C2C(=O)CC(C)(C)C3)cc([N+](=O)[O-])c1O (stereo not drawn)

Compound: O=C(CSc1nc(O)c2ccccc2n1)c1ccc(O)cc1O
IC50 (H9c2): > 79 µM (inactive)

EC50 [6]: > 300 µM (not active)
EC50 [7]: > 300 µM (not active)
Compound: Cc1cc(C=C2C(=O)c3ccccc3C2=O)c(C)n1-c1ccc(C(=O)O)cc1

Compound: COc1ccccc1N(C)S(=O)(=O)c1ccc(Cl)c(C(=O)NCC2(N(C)C)CCCCC2)c1
AC50 [8]: 2.92 µM (active)
AC50 [9]: 5.54 µM (active)
AC50 [10]: 3.32 µM (active)
AC50 [11]: 3.96 µM (active)

Compound: COc1ccc(Cl)cc1NC(=O)CN(C)C(=O)CCCc1c[nH]c2ccccc12
AC50 [8]: 3.29 µM (active)
AC50 [9]: 4.68 µM (active)
AC50 [10]: 4.6 µM (active)
AC50 [11]: 5.13 µM (active)

Compound: COc1ccc(-c2csc3ncnc(Oc4ccc5c(C)cc(=O)oc5c4)c23)cc1
EC50 [3]: 47.3 µM (active)
EC50 [5]: 24.8 µM (active)

Compound: CSCCC(NS(=O)(=O)c1ccccc1)C(=O)OCc1cc(=O)oc2cc(O)ccc12 (stereo not drawn)
IC50 (H9c2): > 79 µM (inactive)

Compound: COc1cc([N+](=O)[O-])cc(/C=N/NC(=O)c2cccnc2)c1O
IC50 (Fatty acid synthase [1]): 9.94 µM (active)
EC50 [12]: 2.99 µM (active)
EC50 (Streptococcus): 1.76 µM (active)
IC50 (Fatty acid synthase [2]): 9.23 µM (active)

Compound: CCCc1nc([N+](=O)[O-])c(S(=O)(=O)c2ccccc2)n1CC(C)C
AC50 [13]: 25.9 µM (active)
AC50 [14]: 7.39 µM (active)

Compound: C=CCOC(=O)COc1ccc2c3c(c(=O)oc2c1)CCCC3
IC50 (H9c2): 14.5 µM (active)

Compound: CC[C@@]1(C(=O)OC)N[C@H](CN(C)C(=O)Nc2ccc(OC)cc2)[C@@H]2C(=O)N(Cc3ccccc3)C(=O)[C@@H]21
AC50 [8]: 1.1 µM (active)
AC50 [9]: 1.46 µM (active)
AC50 [10]: 1.32 µM (active)
AC50 [11]: 1.71 µM (active)

Compound: O=C(CNC(=O)c1[nH]cnc1C(=O)NC(c1ccccc1)c1ccccc1)OCc1ccccc1
IC50 (H9c2): > 79 µM (inactive)

Compound: O=C(Cn1nnc(-c2ccccc2Cl)n1)N/N=C/c1ccc(-c2cccc(Cl)c2)o1
EC50 [3]: 39.1 µM (active)
EC50 [5]: 20.1 µM (active)

EC50 [6]: 166 µM (inconclusive)
EC50 [7]: > 300 µM (not active)
Compound: O=c1[nH]c(CSc2ncccn2)nc2c1cnn2-c1ccccc1

EC50 [6]: > 300 µM (not active)
EC50 [7]: 45.8 µM (active)
Compound: COc1ccc(OC)c(C2=C/C(=C/c3ccccn3)C(=O)O2)c1

Compound: COc1ccc(CCn2c(=O)c3cccnc3n(Cc3ccc([N+](=O)[O-])cc3)c2=O)cc1OC
IC50 (H9c2): > 79 µM (inactive)

Compound: O=C(Nc1ccccc1)c1nc[nH]c1C(=O)NCCNC(=O)c1[nH]cnc1C(=O)Nc1ccccc1
IC50 (H9c2): > 79 µM (inactive)

Compound: Cc1ccc(-c2nnc(O)c3ccccc23)cc1S(N)(=O)=O
IC50 (H9c2): 21.8 µM (active)

IC50 (Fatty acid synthase [1]): 80 µM (inactive)
IC50 (Fatty acid synthase [2]): 44.9 µM (inactive)
Compound: COc1ccc2[nH]c3c(c2c1)CCN1C(=O)C(CC(=O)NCCC2=CCCCC2)C[C@H](C(=O)N2CCOCC2)[C@@]31CCC1CCCC1 (stereo partly drawn)

Compound: COCCn1cnc2c(c1=O)c1nc3ccccc3nc1n2/N=C/c1cccc(OC)c1
EC50 [15]: > 53 µM (inactive)
IC50 (H9c2): 24.5 µM (active)
IC50 [16]: > 47.1 µM (inactive)

IC50 (Fatty acid synthase [1]): 10.3 µM (active)
IC50 (Fatty acid synthase [2]): 6.55 µM (active)
Compound: Cc1c(Cl)c(=O)oc2cc(OCC(=O)N3CCCC(C)C3)ccc12 (stereo not drawn)

Compound: CC(OC(=O)c1ccc(NC(=O)CC#N)cc1)C(=O)NCCC1=CCCCC1 (stereo not drawn)
AC50 [11]: 0.439 µM (active)

Compound: COc1ccc(/C=C(\C#N)c2nc3cc(C)ccc3[nH]2)cc1Oc1ccc(C(F)(F)F)cc1[N+](=O)[O-]
EC50 [3]: 8.78 µM (active)
EC50 [5]: 4.59 µM (active)

Compound: COC(=O)[C@]1(C)N[C@H](CN(C)C(=O)Nc2ccc(Cl)cc2)[C@@H]2C(=O)N(Cc3ccccc3)C(=O)[C@@H]21
AC50 [8]: 0.659 µM (active)
AC50 [9]: 1.5 µM (active)
AC50 [10]: 1.3 µM (active)
AC50 [11]: 1.12 µM (active)

Compound: CCOC(=O)[C@@H]1[C@H]2COc3ccc(Br)cc3[C@@H]2N2C(=O)N(c3cccc(F)c3)C(=O)[C@@]12C
AC50 [8]: 2.7 µM (active)
AC50 [9]: 2.45 µM (active)
AC50 [10]: 4.21 µM (active)
AC50 [11]: 4.41 µM (active)

IC50 (Fatty acid synthase [1]): 28.5 µM (inactive)
IC50 (Fatty acid synthase [2]): 33.4 µM (inactive)
Compound: O=C(Oc1cccc(N2C(=O)C3C4c5ccccc5C(c5ccccc54)C3C2=O)c1)c1ccco1 (stereo not drawn)
